Values quoted from earlier work as cited in patent US9737548B2, “Pharmaceutical formulations and uses thereof in the treatment of female sexual dysfunction” (EB IP LYBRIDO B.V., priority 2005, dated 2017).

What was measured:
[1] = short-lasting peak formulation
[2] = serum concentration

Compound	time after administration at which peak serum level of testosterone is obtained [1] [min]	time after which testosterone serum level is back to the level before administration [1]	Tmax [2] [h]
C[C@]12CC[C@H]3[C@@H](CCC4=CC(=O)CC[C@@]43C)[C@@H]1CC[C@@H]2O [testosterone, 17-β-hydroxyandrost-4-en-3-one]	1 to 20	approximately 120 minutes	
COc1cc2nc(N3CCN(C(=O)c4ccco4)CC3)nc(N)c2cc1OC [prazosin]			1 to 2
